Values of other authors in patent publication US8404645B2, “Stable formulations of amylin and its analogues” (Novo Nordisk AS, priority 2007, dated 2013).
Where no end group is shown, it is not given here.

Conditions: treated test animals; provoking marked hyperlactemia followed by hyperglycemia

Substance | Amylin activity in vivo
Arg18 Pro25 Pro28-h-amylin | show amylin activity in vivo
Arg18 Pro25 Pro 28-des-Lys1-h-amylin | show amylin activity in vivo
Pro25 Val26 Pro 28 Pro29-h-amylin | show amylin activity in vivo
Pro28-h-amylin (KCNTATCATQRLANFLVHSSNNFGAILPSTNVGSNTY; ends and bridges not checked; cysteine pairing not given here; UniProt P10997 34-70, looked up, variant S28P) [human amylin analog, Pro at position 28] | show amylin activity in vivo
des-Lys1-h-amylin | show amylin activity in vivo
